Assay results published in patent US11759462B2, “Spirocyclic compounds as tryptophan hydroxylase inhibitors” (priority 2013, dated 2023).

These compounds were tested against T1, Recombinant human TPH1 (MBP tagged) (Homo sapiens, UniProt P17752) (assay: TPH1 in vitro inhibition assay (kinetic fluorescence)). Details: TPH1 Range (TPH1 inhibition IC50).
T1 construct: cloning full length human TPH1 cDNA in to a bacterial pMAL-c5E expression vector; made in house; host or cells: E. coli BL21 (DE3)
T1 sequence (P17752 1-444): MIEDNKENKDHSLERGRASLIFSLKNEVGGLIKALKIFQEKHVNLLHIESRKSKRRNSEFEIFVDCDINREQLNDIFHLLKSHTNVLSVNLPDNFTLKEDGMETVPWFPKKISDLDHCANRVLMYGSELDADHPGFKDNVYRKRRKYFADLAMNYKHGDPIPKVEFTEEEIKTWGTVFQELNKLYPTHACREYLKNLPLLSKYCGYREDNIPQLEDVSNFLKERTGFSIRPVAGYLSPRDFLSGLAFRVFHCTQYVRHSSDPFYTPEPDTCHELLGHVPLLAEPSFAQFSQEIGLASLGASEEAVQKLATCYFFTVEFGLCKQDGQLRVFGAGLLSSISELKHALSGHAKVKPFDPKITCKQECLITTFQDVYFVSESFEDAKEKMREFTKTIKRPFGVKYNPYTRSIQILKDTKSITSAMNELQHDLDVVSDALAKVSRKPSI
Type: biochemical
Summary of the method: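 Final mix: 15 nM MBP-TPH1, 30 μM Trp, 36 μM 6-methyltetrahydropterin, 25 μM ferrous ammonium sulfate, 50 mM MES pH 7.1, 1% DMSO, room temperature.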

IC50 [nM] | SMILES
< 50 | Nc1nc(O[C@H](c2ccc(-c3ccc4ncc(F)cc4c3)cc2)C(F)(F)F)cc(N2CCC3(CC2)CN[C@H](C(=O)O)C3)n1 [Example 55dc, (S)-8-(2-amino-6-((R)-2,2,2-trifluoro-1-(4-(3-fluoroquinolin-6-yl)phenyl)ethoxy)pyrimidin-4-yl)-2,8-diazaspiro[4.5]decane-3-carboxylic acid]

Same assay, conditions: read-out: TPH1 Range (TPH1 inhibition IC50)

IC50 [nM] | SMILES
< 50 | Nc1nc(O[C@H](c2ccc(-c3ccc4[nH]cnc4c3)cc2)C(F)(F)F)cc(N2CCC3(CC2)CN[C@H](C(=O)O)C3)n1 [Example 55d, (S)-8-(6-((R)-1-(4-(1H-benzo[d]imidazol-5-yl)phenyl)-2,2,2-trifluoroethoxy)-2-aminopyrimidin-4-yl)-2,8-diazaspiro[4.5]decane-3-carboxylic acid]
300 to 3000 | COc1ccc(F)cc1-c1ccc([C@@H](Oc2cc(N3CCC4(CC3)CN[C@H](C(=O)O)C4)nc(N)n2)C(F)(F)F)cc1 [Example 55da, (S)-8-(2-amino-6-((R)-2,2,2-trifluoro-1-(5′-fluoro-2′-methoxy-[1,1′-biphenyl]-4-yl)ethoxy)pyrimidin-4-yl)-2,8-diazaspiro[4.5]decane-3-carboxylic acid]
300 to 3000 | Nc1nc(O[C@H](c2ccc(-c3ccc4c(c3)OC(=O)CC4)cc2)C(F)(F)F)cc(N2CCC3(CC2)CN[C@H](C(=O)O)C3)n1 [Example 55db, (S)-8-(2-amino-6-((R)-2,2,2-trifluoro-1-(4-(2-oxochroman-7-yl)phenyl)ethoxy)pyrimidin-4-yl)-2,8-diazaspiro[4.5]decane-3-carboxylic acid]
50 to 300 | CCCOc1ccc(-c2ccc([C@@H](Oc3cc(N4CCC5(CC4)CN[C@H](C(=O)O)C5)nc(N)n3)C(F)(F)F)cc2)cc1 [Example 55dd, (S)-8-(2-amino-6-((R)-2,2,2-trifluoro-1-(4′-propoxy-[1,1′-biphenyl]-4-yl)ethoxy)pyrimidin-4-yl)-2,8-diazaspiro[4.5]decane-3-carboxylic acid]
50 to 300 | CCN(CC)C(=O)c1ccc(-c2ccc([C@@H](Oc3cc(N4CCC5(CC4)CN[C@H](C(=O)O)C5)nc(N)n3)C(F)(F)F)cc2)cc1 [Example 55de, (S)-8-(2-amino-6-((R)-1-(4′-(diethylcarbamoyl)-[1,1′-biphenyl]-4-yl)-2,2,2-trifluoroethoxy)pyrimidin-4-yl)-2,8-diazaspiro[4.5]decane-3-carboxylic acid]
50 to 300 | NC(=O)c1ccc(-c2ccc([C@@H](Oc3cc(N4CCC5(CC4)CN[C@H](C(=O)O)C5)nc(N)n3)C(F)(F)F)cc2)cc1 [Example 55df, (S)-8-(2-amino-6-((R)-1-(4′-carbamoyl-[1,1′-biphenyl]-4-yl)-2,2,2-trifluoroethoxy)pyrimidin-4-yl)-2,8-diazaspiro[4.5]decane-3-carboxylic acid]
50 to 300 | CNC(=O)c1ccc(-c2ccc([C@@H](Oc3cc(N4CCC5(CC4)CN[C@H](C(=O)O)C5)nc(N)n3)C(F)(F)F)cc2)cc1 [Example 55dg, (S)-8-(2-amino-6-((R)-2,2,2-trifluoro-1-(4′-(methylcarbamoyl)-[1,1′-biphenyl]-4-yl)ethoxy)pyrimidin-4-yl)-2,8-diazaspiro[4.5]decane-3-carboxylic acid]
50 to 300 | Nc1nc(O[C@H](c2ccc(-c3ccc(C(=O)NCCN4CCOCC4)cc3)cc2)C(F)(F)F)cc(N2CCC3(CC2)CN[C@H](C(=O)O)C3)n1 [Example 55dh, (S)-8-(2-amino-6-((R)-2,2,2-trifluoro-1-(4′-((2-morpholinoethyl)carbamoyl)-[1,1′-biphenyl]-4-yl)ethoxy)pyrimidin-4-yl)-2,8-diazaspiro[4.5]decane-3-carboxylic acid]
50 to 300 | CS(=O)(=O)c1ccc(-c2ccc([C@@H](Oc3cc(N4CCC5(CC4)CN[C@H](C(=O)O)C5)nc(N)n3)C(F)(F)F)cc2)cc1 [Example 55di, (S)-8-(2-amino-6-((R)-2,2,2-trifluoro-1-(4′-(methylsulfonyl)-[1,1′-biphenyl]-4-yl)ethoxy)pyrimidin-4-yl)-2,8-diazaspiro[4.5]decane-3-carboxylic acid]
50 to 300 | Nc1nc(O[C@H](c2ccc(-c3ccc(S(N)(=O)=O)cc3)cc2)C(F)(F)F)cc(N2CCC3(CC2)CN[C@H](C(=O)O)C3)n1 [Example 55dj, (S)-8-(2-amino-6-((R)-2,2,2-trifluoro-1-(4′-sulfamoyl-[1,1′-biphenyl]-4-yl)ethoxy)pyrimidin-4-yl)-2,8-diazaspiro[4.5]decane-3-carboxylic acid]
50 to 300 | Nc1nc(O[C@H](c2ccc(-c3ccc(C(=O)N4CCNCC4)cc3)cc2)C(F)(F)F)cc(N2CCC3(CC2)CN[C@H](C(=O)O)C3)n1 [Example 55dl, (S)-8-(2-amino-6-((R)-2,2,2-trifluoro-1-(4′-(piperazine-1-carbonyl)-[1,1′-biphenyl]-4-yl)ethoxy)pyrimidin-4-yl)-2,8-diazaspiro[4.5]decane-3-carboxylic acid]
50 to 300 | CCCOc1ccc(-c2ccc([C@@H](Oc3cc(N4CCC5(CC4)CN[C@H](C(=O)O)C5)nc(N)n3)C(F)(F)F)cc2)cc1F [Example 55dm, (S)-8-(2-amino-6-((R)-2,2,2-trifluoro-1-(3′-fluoro-4′-propoxy-[1,1′-biphenyl]-4-yl)ethoxy)pyrimidin-4-yl)-2,8-diazaspiro[4.5]decane-3-carboxylic acid]
50 to 300 | CCOc1ccc(-c2ccc([C@@H](Oc3cc(N4CCC5(CC4)CN[C@H](C(=O)O)C5)nc(N)n3)C(F)(F)F)cc2)cc1F [Example 55dn, (S)-8-(2-amino-6-((R)-1-(4′-ethoxy-3′-fluoro-[1,1′-biphenyl]-4-yl)-2,2,2-trifluoroethoxy)pyrimidin-4-yl)-2,8-diazaspiro[4.5]decane-3-carboxylic acid]
< 50 | CCOc1ccc(-c2ccc([C@@H](Oc3cc(N4CCC5(CC4)CN[C@H](C(=O)O)C5)nc(N)n3)C(F)(F)F)cc2)cc1 [Example 55do, (S)-8-(2-amino-6-((R)-1-(4′-ethoxy-[1,1′-biphenyl]-4-yl)-2,2,2-trifluoroethoxy)pyrimidin-4-yl)-2,8-diazaspiro[4.5]decane-3-carboxylic acid]
< 50 | Nc1nc(O[C@H](c2ccc(-c3ccc4nnccc4c3)cc2)C(F)(F)F)cc(N2CCC3(CC2)CN[C@H](C(=O)O)C3)n1 [Example 55dp, (S)-8-(2-amino-6-((R)-1-(4-(cinnolin-6-yl)phenyl)-2,2,2-trifluoroethoxy)pyrimidin-4-yl)-2,8-diazaspiro[4.5]decane-3-carboxylic acid]
< 50 | Nc1nc(O[C@H](c2ccc(-c3ccc4c(c3)CCCO4)cc2)C(F)(F)F)cc(N2CCC3(CC2)CN[C@H](C(=O)O)C3)n1 [Example 55dq, (S)-8-(2-amino-6-((R)-1-(4-(chroman-6-yl)phenyl)-2,2,2-trifluoroethoxy)pyrimidin-4-yl)-2,8-diazaspiro[4.5]decane-3-carboxylic acid]
50 to 300 | COc1ccc(-c2ccc([C@@H](Oc3cc(N4CCC5(CC4)CN[C@H](C(=O)O)C5)nc(N)n3)C(F)(F)F)cc2)cc1F [Example 55e, (S)-8-(2-amino-6-((R)-2,2,2-trifluoro-1-(3′-fluoro-4′-methoxy-[1,1′-biphenyl]-4-yl)ethoxy)pyrimidin-4-yl)-2,8-diazaspiro[4.5]decane-3-carboxylic acid]
50 to 300 | Nc1nc(O[C@H](c2ccc(-c3ccc4cnsc4c3)cc2)C(F)(F)F)cc(N2CCC3(CC2)CN[C@H](C(=O)O)C3)n1 [Example 55f, (S)-8-(2-amino-6-((R)-1-(4-(benzo[d]isothiazol-6-yl)phenyl)-2,2,2-trifluoroethoxy)pyrimidin-4-yl)-2,8-diazaspiro[4.5]decane-3-carboxylic acid]
300 to 3000 | Nc1nc(O[C@H](c2ccc(-c3ccc4cnoc4c3)cc2)C(F)(F)F)cc(N2CCC3(CC2)CN[C@H](C(=O)O)C3)n1 [Example 55g, (S)-8-(2-amino-6-((R)-1-(4-(benzo[d]isoxazol-6-yl)phenyl)-2,2,2-trifluoroethoxy)pyrimidin-4-yl)-2,8-diazaspiro[4.5]decane-3-carboxylic acid]
50 to 300 | Nc1nc(O[C@H](c2ccc(-c3ccc4cn[nH]c4c3)cc2)C(F)(F)F)cc(N2CCC3(CC2)CN[C@H](C(=O)O)C3)n1 [Example 55h, (S)-8-(6-((R)-1-(4-(1H-indazol-6-yl)phenyl)-2,2,2-trifluoroethoxy)-2-aminopyrimidin-4-yl)-2,8-diazaspiro[4.5]decane-3-carboxylic acid]
< 50 | Cn1ncc2ccc(-c3ccc([C@@H](Oc4cc(N5CCC6(CC5)CN[C@H](C(=O)O)C6)nc(N)n4)C(F)(F)F)cc3)cc21 [Example 55i, (S)-8-(2-amino-6-((R)-2,2,2-trifluoro-1-(4-(1-methyl-1H-indazol-6-yl)phenyl)ethoxy)pyrimidin-4-yl)-2,8-diazaspiro[4.5]decane-3-carboxylic acid]
50 to 300 | Nc1nc(O[C@H](c2ccc(-c3ccc4sncc4c3)cc2)C(F)(F)F)cc(N2CCC3(CC2)CN[C@H](C(=O)O)C3)n1 [Example 55j, (S)-8-(2-amino-6-((R)-1-(4-(benzo[d]isothiazol-5-yl)phenyl)-2,2,2-trifluoroethoxy)pyrimidin-4-yl)-2,8-diazaspiro[4.5]decane-3-carboxylic acid]
